Source: PMC3386561 (Toxicology in Vitro, 2011)
Values after ≈ are worked out from the molar mass of the structure shown. “Also recorded” adds a separate entry of the source.

Experiments:
[1] = test system: HepG2-CYP3A4 transfected cells; assay: Cell viability; type: cell-based; conditions: for Concentration at which a significant decrease in cell viability begins: p < 0.05 vs 0 μM control; for Cytotoxicity (in words): 0-250 μM
[2] = test system: liver; conditions: cited from earlier work; for Toxicity / liver damage in rats (in words): ref Patel et al., 2011
[3] = Cell viability; type: cell-based; conditions: human; for viability: % Cell Viability
[4] = Cell viability; type: cell-based; conditions: human
[5] = test system: HepG2 wild type cells; assay: Cell viability; type: cell-based; conditions: 24 hr
[6] = Solubility in HBSS; type: physicochemical
[7] = target: T1, CYP3A4 (Homo sapiens, UniProt P08684)
T1 sequence (P08684 whole entry): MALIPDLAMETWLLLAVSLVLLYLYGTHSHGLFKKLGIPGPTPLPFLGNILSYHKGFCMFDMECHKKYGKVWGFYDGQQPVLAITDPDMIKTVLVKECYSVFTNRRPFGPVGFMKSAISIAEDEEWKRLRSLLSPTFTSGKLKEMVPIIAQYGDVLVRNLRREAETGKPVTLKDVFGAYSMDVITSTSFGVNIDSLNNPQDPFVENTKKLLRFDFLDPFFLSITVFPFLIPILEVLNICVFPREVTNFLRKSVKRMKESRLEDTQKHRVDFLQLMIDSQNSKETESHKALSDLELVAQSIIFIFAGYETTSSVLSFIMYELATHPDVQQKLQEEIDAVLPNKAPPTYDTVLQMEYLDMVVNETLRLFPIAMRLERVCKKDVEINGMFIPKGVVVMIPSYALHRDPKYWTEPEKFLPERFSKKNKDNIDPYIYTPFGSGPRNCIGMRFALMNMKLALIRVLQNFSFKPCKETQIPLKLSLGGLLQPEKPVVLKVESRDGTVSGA

[8] = target: T1, CYP3A4; assay: in vitro
[9] = target: T1, CYP3A4; assay: Testosterone 6β-hydroxylation in HepG2 wild type cells; conditions: 0-250 μM testosterone, 1 hr
[10] = DCPT hydrolysis in HBSS; type: physicochemical; conditions: 250 μM in HBSS, 37 °C, after 24 hr

## O=C1SCCN1c1cc(Cl)cc(Cl)c1 [2-DCTD, (3,5-dichlorophenyl)-2-thiazolidinone]
[1]; 100 μM, 24 hr
  Cell viability: 99.6 ± 4.6%
[1]; 250 μM, 24 hr
  Cell viability: 37.3 ± 7.1%
[2]
  Toxicity / liver damage in rats (in words): neither compound produced liver damage

## O=C=Nc1cc(Cl)cc(Cl)c1 [DPI, 3,5-dichlorophenyl isocyanate]
[3]
  CC50 at 24 h: > 250 µM
  viability at 24 h, 250 μM: ≥ 50%
[1]; 24 hr
  Concentration at which a significant decrease in cell viability begins: 100 µM
[4]
  CC50 at 24 h: > 250 µM
  viability at 24 h, 250 μM: ≥ 50%
[5]; p < 0.05 vs 0 μM control
  Concentration at which a significant decrease in cell viability begins: 25 µM

## CC1SC(=O)N(c2cc(Cl)cc(Cl)c2)C1=O (centres unmarked) [DPMT, 3-(3,5-dichlorophenyl)-5-methyl-2,4-thiazolidinedione]
[3]; HepG2-CYP3A4 transfected cells
  CC50 at 24 h: > 250 µM
[1]; 24 hr
  Cytotoxicity (in words): no observed decrease in viability; also recorded: non-toxic
[4]
  CC50 at 24 h: > 250 µM
[6]; evident at 250 μM
  Solubility in HBSS (in words): issues regarding the solubility
[2]
  Toxicity / liver damage in rats (in words): hepatotoxic

## CC(=O)N1CCN(c2ccc(OCC3COC(Cn4ccnc4)(c4ccc(Cl)cc4Cl)O3)cc2)CC1 (centres unmarked) [KCZ, ketoconazole, reference compound]
[3]
  viability: 106 ± 4.5%

## C[C@]12CC[C@H]3[C@@H](CCC4=CC(=O)CC[C@@]43C)[C@@H]1CC[C@@H]2O [Testosterone]
[7]
  Vmax of testosterone 6β-hydroxylation: 92.7 ± 13.3 pmol/min/mg protein
[8]
  Km: 81.1 ± 5.7 µM
[9]
  6β-hydroxylation of testosterone: no detectable

## O=C1CSCN1c1cc(Cl)cc(Cl)c1 [4-DCTD, 3-(3,5-dichlorophenyl)-4-thiazolidinone]
[3]; HepG2-CYP3A4 transfected cells
  CC50 at 24 h: > 250 µM
[1]; 24 hr
  Cytotoxicity (in words): not cytotoxic; also recorded: not toxic
[4]
  CC50 at 24 h: > 250 µM
[2]
  Toxicity / liver damage in rats (in words): neither compound produced liver damage

## O=C(O)CSC(=O)Nc1cc(Cl)cc(Cl)c1 [DCTA, S-(3,5-dichlorophenyl)aminocarbonyl thioglycolic acid]
[3]; HepG2-CYP3A4 transfected cells
  CC50 at 24 h: 67.3 ± 8.1 µM
[1]; 24 hr
  Concentration at which a significant decrease in cell viability begins: 50 µM
[4]
  CC50 at 24 h: 65.3 ± 3.9 µM
[2]
  Toxicity / liver damage in rats (in words): toxic

## O=C1CSC(=O)N1c1cc(Cl)cc(Cl)c1 [DCPT, 3-(3,5-dichlorophenyl)-2,4-thiazolidinedione]
[3]; 100 μM DCPT alone, 24 hr
  viability: 82.6 ± 2.8%
[3]; 100 μM DEX pretreatment 24 hr, then 100 μM DCPT 24 hr
  viability: 73 ± 1%
[3]; 250 μM DCPT alone, 24 hr
  viability: 21.3 ± 3.2%
[3]; HepG2-CYP3A4 transfected cells
  CC50 at 24 h: 160 ± 5.9 µM
[1]; 250 μM DCPT, 24 hr
  Reduction of cell viability: 80%
[1]; 24 hr
  Concentration at which a significant decrease in cell viability begins: 100 µM
[1]; DEX pretreatment followed by 100 μM DCPT, compared to controls
  Decrease in cell viability: approximately 10%
[4]
  CC50 at 24 h: 233 ± 19.7 µM
[5]; highest concentration (250 μM) DCPT
  Reduction of cell viability: approximately 60%
[6]; HBSS, aqueous buffer
  solubility: 250 µM (≈ 65.5 µg/mL)
[10]
  DCPT remaining: less than 50%
[2]; Fischer 344 rats, ref Kennedy et al., 2003, Patel et al., 2008
  Hepatotoxicity in rats (in words): hepatotoxic
